Source: patent US20240336567A1, “PESTICIDAL AND HERBICIDAL COMPOUNDS AND METHODS OF USE THEREOF” (AG Plenus Ltd, priority 2021, published 2024)

How the values were obtained:
POAAN = assay: In-planta LTP post-emergence, visual phenotype; format: in vivo, Poa annua; details: monocot
Method: (§1) A basic panel of eight weed species (Table 3) sowed in 4×4×7 cm plastic pots containing a garden mix (klasmann). Each specie was sowed in a separate pot. In each pot, 10-15 seeds were sowed according to the specie viability. Timing of application determined at a 1-2 true leaf stage. The plants grew for 30 days in a controlled greenhouse (26±2° C. day, 20±2° C. night). Hood irrigation (tap water+Shefer 5:3:8 8 mM) was given at a 50% water content by weight. Two days before application, the tested plants thinned down to three plants per pot. Compounds were soluble in water (DDW), and commercial herbicide control was soluble in formulation B (Table 4). […] Plants were evaluated at 3 time points (4, 8, 12 days after application (DAA)). At each time point, visual phenotyping was recorded using a scale of 0-6 (0: no visible effect, 6: maximum effect). […]
(§2) Post-emergence advanced dose response experiment included 4 species: SETVI, ECHCO, AMAPA, ABUTH (Tables 3, 5). […] Plants were evaluated at 4 time points (6, 12, 18 and 26 DAA). At each time point, visual phenotyping was recorded using a scale of 0-6 (0: no visible effect, 6: maximum effect). […]
(§3) Post-emergence advanced wide panel experiment included 24 weed species (Table 5). […] Visual phenotyping was recorded at 4, 11, 17 and 20 DAA using a scale of 0-6 (0: no visible effect, 6: maximum effect). […]

ALOMY = assay: In-planta LTP pre-emergence, visual phenotype; format: in vivo, Alopecurus myosuroides; details: monocot
Method: (§4) A basic panel of 8 weed species (Table 3) were sowed in 4×4×7 cm plastic pots containing inert sand (Sweet sand), intensively washed using osmosis water. Each specie was sowed in a separate pot. In each pot 10-15 seeds were sowed according to the specie viability. Sowing was performed one day before application. The plants were grown for 21 days in a controlled greenhouse (26±2° C. day 20±2° C. night). Hood irrigation (tap water+Shefer 5:3:8 8 mM) was given at a 50% water content by weight. Compounds were soluble in water (DDW), and commercial herbicide control was soluble in formulation B (Table 4). Application was conducted with an industrial sprayer (TeeJet 6502E nozzle) at a rate of 2 kg/ha and spray volume of […]. Pre-emergence advanced dose response experiment application was conducted at six rates between 1-0.0312 kg/ha and spray volume of […]. Percentage of emergence was evaluated at 15 DAA. Visual phenotyping was recorded using a scale of 0-6 (0: no visible effect, 6: maximum effect) at 18 DAA. All experiments included an untreated control, a solvent control and a positive control (commercial herbicide A.I.). Statistical analysis for visual phenotyping determined by a median value of ≥3.5 and Fisher test (pval≤0.05). Statistical analysis for plant emergence determined by % emergence ≥50 and T test (pval≤0.05), as well as Wilcox test (pval≤0.05).

ECHCO = assay: In-planta LTP post-emergence, visual phenotype; format: in vivo, Echinochloa colona; details: monocot
Method: as §1, §2, §3

MATCA = assay: In-planta LTP pre-emergence, visual phenotype; format: in vivo, Matricaria chamomilla; details: dicot
Method: as §4

## C[C@@H](N)COc1cccc(C(=O)O)c1 [Compound 154]
POAAN
  IG Inhibited growth (% effect): IG (60) %
ALOMY
  BL Bleaching (% effect): BL (60) %
  DAB Disturbed apical bud (% effect): DAB (60), %
  DE Disturbed emergence (% effect): DE (40), %
  IG Inhibited growth (% effect): IG (80), %

## CC(N)COc1cccc(C(=O)O)c1 (centres unmarked) [Compound 106]
ECHCO
  IG Inhibited growth (% effect): IG^1 (60) %

## CCCCOC(=O)c1cccc(OCC(C)N)c1 (centres unmarked) [Compound 112]
MATCA
  IG Inhibited growth (% effect): IG (60) %

## C#CCOC(=O)c1cccc(OCC(C)N)c1 (centres unmarked) [Compound 111]
ALOMY
  IG Inhibited growth (% effect): IG (40) %
